Here are results for 63 compounds from US20100286173A1 (priority 2008, published 2010).

The nature of the data set: Measurement of logP values by HPLC on reversed phase columns (EEC directive 79/831 Annex V.A8). Type of data set: physicochemical. The note with it: pH 2.7, 0.1% formic acid in water / acetonitrile gradient 10% to 95%; for chromatographic logP: reversed phase HPLC column.

`CCCCCOC(=O)Nc1cccc(CON=C(c2ccc(C(F)(F)F)cc2F)c2nnnn2C)n1` (single isomer, unassigned) [Example 23] had a logp of 4.78. As for `CCCCCOC(=O)Nc1cccc(CON=C(c2ccc(C(F)(F)F)cc2F)c2nnnn2C)n1` (single isomer, unassigned) [Example 24], the logp is on record as 4.73. `CC(C)C(=O)Nc1cccc(CON=C(c2ccc(C(F)(F)F)cc2F)c2nnnn2C)n1` (single isomer, unassigned) [Example 28] had a logp of 3.48.

In turn, `CCCCCOC(=O)Nc1cccc(CON=C(c2ccc(OC(F)(F)F)cc2C)c2nnnn2C)n1` (single isomer, unassigned) [Example 96] registered a logp of 4.89.

As to `CCCCCOC(=O)Nc1cccc(CON=C(c2ccc(OC(F)(F)F)cc2C)c2nnnn2C)n1` (single isomer, unassigned) [Example 97], the logp stood at 5.11.

Take `CCCCCC(=O)Nc1cccc(CON=C(c2ccc(C)c(F)c2)c2nnnn2C)n1` (single isomer, unassigned) [Example 102]: the logp stood at 4.21. `CCCCCC(=O)Nc1cccc(CON=C(c2ccc(OC(F)(F)F)cc2C)c2nnnn2C)n1` (single isomer, unassigned) [Example 108] yielded a logp of 4.39. Still for that read-out and setting: under `CCCCCOC(=O)Nc1cccc(CON=C(c2cc(C(F)(F)F)ccc2C)c2nnnn2C)n1` (single isomer, unassigned) [Example 110] stands 4.84; under `CCCCCC(=O)Nc1cccc(CON=C(c2ccc(C)cc2Cl)c2nnnn2C)n1` (single isomer, unassigned) [Example 113], 4.16; under `CCCCCC(=O)Nc1cccc(CON=C(c2ccc(C)c(F)c2)c2nnnn2C)n1` (single isomer, unassigned) [Example 114], 4.16. The compound `CCCCCC(=O)Nc1cccc(CON=C(c2cc(C)ccc2Cl)c2nnnn2C)n1` (single isomer, unassigned) [Example 117] returned a logp of 4.19. With `Cn1nnnc1C(=NOCc1cccc(N)n1)c1ccc(C(F)(F)F)cc1F` (single isomer, unassigned) [Example 141], the Log p came out at 1.82. Compound `Cn1nnnc1C(=NOCc1cccc(N)n1)c1ccc(C(F)(F)F)cc1F` (single isomer, unassigned) [Example 142] had a Log p of 1.72. In turn, `Cn1nnnc1C(=NOCc1cccc(N)n1)c1cccc(C(F)(F)F)c1F` (single isomer, unassigned) [Example 144] showed a Log p of 1.65. Compound `Cc1cc(F)cc(C(=NOCc2cccc(NC(=O)CC(C)C)n2)c2nnnn2C)c1` (single isomer, unassigned) [Example 157] showed a Log p of 3.71. On the same count and under the same terms, under `Cc1cc(F)cc(C(=NOCc2cccc(NC(=O)CC(C)C)n2)c2nnnn2C)c1` (single isomer, unassigned) [Example 158] stands 3.76. With `CCCCOC(=O)Nc1ccnc(CON=C(c2ccc(C)c(C(F)(F)F)c2)c2nnnn2C)n1` [Example 8, butyl(2-{[({(1-methyl-1H-tetrazol-5-yl)[4-methyl-3-(trifluoromethyl)phenyl]methylidene}amino)oxy]methyl}pyrimidin-4-yl)carbamate], the chromatographic logP – broadly, a lipophilicity value derived from retention on a column – worked out at 4.24. For `CCCCCOC(=O)Nc1nc(CON=C(c2ccc(C)c(C(F)(F)F)c2)c2nnnn2C)cs1` [Example 22, pentyl(4-{[({(1-methyl-1H-tetrazol-5-yl)[4-methyl-3-(trifluoromethyl)phenyl]methylidene}amino)oxy]methyl}-1,3-thiazol-2-yl)carbamate], the chromatographic logP stood at 4.73. For the compound `CCCCCC(=O)Nc1cccc(CON=C(c2ccc(C(F)(F)F)cc2F)c2nnnn2C)n1` [Example 26], the logp is 4.29. Compound `CCCCCC(=O)Nc1cccc(CON=C(c2cccc(C(F)(F)F)c2F)c2nnnn2C)n1` [Example 27, N-(6-{[({[2-fluoro-3-(trifluoromethyl)phenyl](1-methyl-1H-tetrazol-5-yl)methylidene}amino)oxy]methyl}pyridin-2-yl)hexanamide] had a chromatographic logP of 4.16.

`CCCCCC(=O)Nc1cccc(CON=C(c2cc(C)ccc2F)c2nnnn2C)n1` [Example 29] yielded a logp of 3.83. For the compound `Cc1ccc(C(=NOCc2cccc(NC(=O)CC(C)C)n2)c2nnnn2C)cc1F` [Example 32], the logp stood at 3.71. Same read-out and setting: the figure for `Cc1cccc(C(=NOCc2cccc(NC(=O)CC(C)C)n2)c2nnnn2C)c1F` [Example 33] is 3.51.

Take `Cc1cc(OC(F)(F)F)ccc1C(=NOCc1cccc(NC(=O)CC(C)C)n1)c1nnnn1C` [Example 34]: the logp is reported as 4.16. Compound `Cc1ccc(Cl)c(C(=NOCc2cccc(NC(=O)CC(C)C)n2)c2nnnn2C)c1` [Example 35] yielded a logp of 3.73. On the same count and under the same terms, under `Cc1cc(C(=NOCc2cccc(NC(=O)CC(C)C)n2)c2nnnn2C)ccc1F` [Example 37] stands 3.67. On the same count and under the same terms, the figure for `Cc1ccc(C(=NOCc2cccc(NC(=O)CC(C)C)n2)c2nnnn2C)c(F)c1` [Example 38] is 3.53; for `CCCCCOC(=O)Nc1cccc(CON=C(c2cc(C)cc(C)c2)c2nnnn2C)n1` [Example 39] it is 4.86. As for `Cc1ccc(C(=NOCc2cccc(NC(=O)CC(C)C)n2)c2nnnn2C)c(Cl)c1` [Example 40], the logp was 3.73.

Turning to `CCCCCC(=O)Nc1cccc(CON=C(c2cc(C)ccc2F)c2nnnn2C)n1` [Example 42], the logp is reported as 3.83. Compound `Cc1ccc(C(=NOCc2cccc(NC(=O)CC(C)C)n2)c2nnnn2C)cc1C(F)(F)F` [Example 43] registered a logp of 4.16. `CCCCCOC(=O)Nc1cccc(CON=C(c2cccc(C(F)(F)F)c2C)c2nnnn2C)n1` [Example 44] showed a logp of 4.78. On the same count and under the same terms, the figure for `CCCCCC(=O)Nc1cccc(CON=C(c2cc(F)cc(C(F)(F)F)c2)c2nnnn2C)n1` [Example 45] is 4.29; for `Cc1ccc(C(=NOCc2cccc(NC(=O)CC(C)C)n2)c2nnnn2C)c(Cl)c1` [Example 46] it is 3.73.

As to `Cc1ccc(F)c(C(=NOCc2cccc(NC(=O)CC(C)C)n2)c2nnnn2C)c1` [Example 48], the logp was 3.53.

`Cc1ccc(C(=NOCc2cccc(NC(=O)CC(C)C)n2)c2nnnn2C)c(Cl)c1` [Example 51] returned a logp of 3.53. Compound `CCCCCOC(=O)Nc1ccnc(CON=C(c2ccc(C)c(C(F)(F)F)c2)c2nnnn2C)n1` [Example 52] yielded a logp of 4.62. Consider `C#CCCOC(=O)Nc1cccc(CON=C(c2ccc(F)c(C)c2)c2nnnn2C)n1` [Example 53], for which the logp was found to be 3.55. With `C=CCCOC(=O)Nc1cccc(CON=C(c2ccc(F)c(C)c2)c2nnnn2C)n1` [Example 55], the logp is 3.92. For `C=CCOC(=O)Nc1cccc(CON=C(c2ccc(F)c(C)c2)c2nnnn2C)n1` [Example 56], the logp turned out to be 3.63. `Cc1cc(C(=NOCc2cccc(NC(=O)CCOc3ccccc3)n2)c2nnnn2C)ccc1F` [Example 57] had a logp of 3.87. Regarding `Cc1cc(C(=NOCc2cccc(NC(=O)CCC3CCCC3)n2)c2nnnn2C)ccc1F` [Example 58], the logp is recorded as 4.56. With `COc1ccc(CC(=O)Nc2cccc(CON=C(c3ccc(F)c(C)c3)c3nnnn3C)n2)cc1` [Example 59], the logp was found to be 3.68. In the case of `COc1cccc(CC(=O)Nc2cccc(CON=C(c3ccc(F)c(C)c3)c3nnnn3C)n2)c1` [Example 60], the logp is reported as 3.72. As to `COc1ccccc1CC(=O)Nc1cccc(CON=C(c2ccc(F)c(C)c2)c2nnnn2C)n1` [Example 61], the logp stood at 3.9. `Cc1ccc(Cl)c(C(=NOCc2cccc(NC(=O)CC(C)C)n2)c2nnnn2C)c1` [Example 62] returned a logp of 3.53. The compound `CC(C)CC(=O)Nc1cccc(CON=C(c2cc(C(F)(F)F)ccc2Cl)c2nnnn2C)n1` [Example 63] gave a logp of 3.96. `Cc1ccc(C(F)(F)F)cc1C(=NOCc1cccc(NC(=O)CC(C)C)n1)c1nnnn1C` [Example 64] gave a logp of 3.94.

As to `CC(C)CC(=O)Nc1cccc(CON=C(c2cc(F)cc(C(F)(F)F)c2)c2nnnn2C)n1` [Example 65], the logp came out at 3.89.

As for `CC(C)CC(=O)Nc1cccc(CON=C(c2ccc(F)c(C(F)(F)F)c2)c2nnnn2C)n1` [Example 66], the logp amounted to 3.94. The same measure, in the same setting: under `Cc1ccc(C(F)(F)F)cc1C(=NOCc1cccc(NC(=O)CC(C)C)n1)c1nnnn1C` [Example 67] stands 3.62; under `Cc1ccc(C(=NOCc2cccc(NC(=O)CC(C)C)n2)c2nnnn2C)cc1C(F)(F)F` [Example 69], 4.14. In turn, `CC(C)CC(=O)Nc1cccc(CON=C(c2ccc(Cl)c(C(F)(F)F)c2)c2nnnn2C)n1` [Example 70] displayed a logp of 4.26. The compound `CC(C)CC(=O)Nc1cccc(CON=C(c2ccc(C(F)(F)F)c(Cl)c2)c2nnnn2C)n1` [Example 71] gave a logp of 4.29. Turning to `Cc1c(F)cccc1C(=NOCc1cccc(NC(=O)CC(C)C)n1)c1nnnn1C` [Example 73], the logp turned out to be 3.53. The compound `Cc1ccc(F)c(C(=NOCc2cccc(NC(=O)CC(C)C)n2)c2nnnn2C)c1` [Example 75] had a logp of 3.42. Consider `CCCCCOC(=O)Nc1cccc(CON=C(c2ccc(C)c(C(F)(F)F)c2)c2nnnn2C)n1` [Example 78], for which the logp amounted to 5.05. Regarding `CCCCCOC(=O)Nc1cccc(CON=C(c2ccc(C(F)(F)F)c(Cl)c2)c2nnnn2C)n1` [Example 79], the logp turned out to be 5.23. Compound `CCCCCOC(=O)Nc1cccc(CON=C(c2ccc(C)c(C(F)(F)F)c2)c2nnnn2C)n1` [Example 81] had a logp of 5.08. Take `CCCCCOC(=O)Nc1cccc(CON=C(c2ccc(F)c(C(F)(F)F)c2)c2nnnn2C)n1` [Example 82]: the logp came out at 4.86.

With `CCCCCOC(=O)Nc1cccc(CON=C(c2cc(C)ccc2Cl)c2nnnn2C)n1` [Example 83], the logp turned out to be 4.54. On to `CCCCCOC(=O)Nc1cccc(CON=C(c2cc(C)ccc2Cl)c2nnnn2C)n1` [Example 84], for which the logp is given as 4.73. For `CCCCCOC(=O)Nc1cccc(CON=C(c2ccc(C(F)(F)F)c(Cl)c2)c2nnnn2C)n1` [Example 86], the logp is recorded as 5.2.
